In patent US10399986B2, “Inhibitors of leukotriene A4 hydrolase” (CELTAXSYS, INC., priority 2013, dated 2019):
Values joined by “and” are separate entries in the source; they are usually repeats but may differ in a detail not shown here. Identical values can stand only once. Like-named read-outs stand apart in the source and are kept apart here.

Assays:
[1] = biological target: T1, LTA4-h (Homo sapiens, UniProt P09960); assay: peptidase (aminopeptidase) assay; format: biochemical
T1 sequence (P09960 1-611): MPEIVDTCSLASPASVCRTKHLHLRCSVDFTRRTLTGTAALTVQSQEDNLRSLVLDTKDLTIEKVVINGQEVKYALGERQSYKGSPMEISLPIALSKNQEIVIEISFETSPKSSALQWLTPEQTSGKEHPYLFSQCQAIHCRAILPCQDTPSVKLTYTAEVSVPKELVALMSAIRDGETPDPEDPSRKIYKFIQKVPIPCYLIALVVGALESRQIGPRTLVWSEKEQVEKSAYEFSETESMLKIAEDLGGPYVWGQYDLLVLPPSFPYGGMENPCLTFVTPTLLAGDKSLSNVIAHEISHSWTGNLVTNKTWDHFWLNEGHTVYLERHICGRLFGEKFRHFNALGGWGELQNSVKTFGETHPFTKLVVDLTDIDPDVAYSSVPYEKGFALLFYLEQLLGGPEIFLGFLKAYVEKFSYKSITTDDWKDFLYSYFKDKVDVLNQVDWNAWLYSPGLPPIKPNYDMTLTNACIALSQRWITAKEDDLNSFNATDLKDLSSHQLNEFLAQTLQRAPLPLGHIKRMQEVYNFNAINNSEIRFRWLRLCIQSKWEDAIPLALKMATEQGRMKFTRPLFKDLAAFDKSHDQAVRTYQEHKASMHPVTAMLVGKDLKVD
Source text: Since LTA4-h hydrolase is grouped with the M1 family of zinc metalloproteases (see, Rudberg, P. C. et al., J. Biol. Chem. 2002, Vol. 277, page 1398-1404), the compounds of the invention can be tested in the standard hydrolase and peptidase assay to determine the compounds' kinetic constants for binding to LTA4-h hydrolase and for inhibiting LTB4 synthesis (see Askonas, L. J., et al., The Journal of Pharmacology and Experimental Therapeutics 2002, 300(2): 577-582; Penning, T. D., J. Med. Chem. 2000, 43(4): 721-735; Kull, F. et al., The Journal of Biological Chemistry 1999, 274 (49): 34683-34690, the contents of which are expressly incorporated by reference herein).
(§1) The whole blood and aminopeptidase assays were performed as described in Penning et al., J. Med. Chem. 2000, 43, 721-735, and Rudberg et al., J. Biol. Chem. Vol. 279, No. 26, Issue of June 25, pp. 27376-27382, 2004, the contents of each of which are expressly incorporated by reference herein. The hydrolase assay was performed as described in U.S. Pat. No. 7,737,145, the contents of which are expressly incorporated herein.

[2] = biological target: T1, LTA4-h; assay: hydrolase assay; format: biochemical
Source text: The compounds of the invention can be tested for their ability to inhibit LTA4-h by various known assays and by assays described herein. For example, the compounds can be tested for their ability to inhibit LTA4-h activity by assaying the compounds in the hydrolase-homogeneous time resolved fluorescence assay. This assay, which is a two-step assay, measures the hydrolysis of […] by analyzing the amount of LTB4 produced. The first step involves the enzymatic conversion of […] and the second step involves the quantification of the […] formed with a homogeneous time resolved fluorescence assay.
as §1

[3] = biological target: T2, LTA4-h hydrolase (Homo sapiens, UniProt P09960); assay: whole blood assay (WBA); format: cell-based
T2 construct: whole blood assay using human, mouse, rat or dog whole blood; from tissue; host or cells: whole blood
T2 sequence (P09960 1-611): T1 sequence (P09960 1-611)
Description: Compounds of the invention can also be tested for their ability as inhibitors of LTA4-h hydrolase in the whole blood assay using human, mouse, rat or dog whole blood (see Penning, T. D. et al., J. Med. Chem. (2000), 43(4): 721-735 for a description of a human whole blood assay and a mouse whole blood assay, the contents of which are expressly incorporated herein).
as §1

[4] = test system: ionophore-induced LTB4 production; settings: oral administration; rat peritoneum in vivo; cited from earlier work
[5] = test system: ionophore-induced LTB4 production; settings: oral administration; mouse blood ex vivo; cited from earlier work
[6] = test system: cotton top tamarins; settings: eight weeks of treatment; cited from earlier work

Compound	IC50 [1]	IC50 [3]	IC50 [2]	further results
2-(4-phenoxyphenylamino)-3-cyano-6-(2-nitro-3-hydroxycarboxyphenyl)pyrazolo[1,5-a]pyrimidine [Compound 9]	3.3 nM			Hydrolase % inhibition ([2]; at 1 uM): 20% inhibition at 1 uM
N#Cc1c(Nc2ccc(Oc3ccccc3)cc2)nn2cc(N)cnc12 [Compound 1]	280 nM	> 8.8 µM	1500 nM	
CS(=O)(=O)c1ccc(-c2cnc3c(C#N)c(Nc4ccc(Oc5ccccc5)cc4)nn3c2)c([N+](=O)[O-])c1 [Compound 2]	260 nM	> 7.2 µM	3700 nM	
N#Cc1c(Nc2ccc(Oc3ccccc3)cc2)nn2cc(-c3cc(C(=O)O)ccc3[N+](=O)[O-])cnc12 [Compound 3]	430 nM	> 10 µM		inhibition at 3 µM [2]: 39%
CN(CCCOc1ccc(Cc2ccccc2)cc1)CCC(=O)O.Cl [SC57461]				inhibition of ionophore-induced LTB4 production [4]: caused inhibition; inhibition of ionophore-induced LTB4 production [5]: caused inhibition; colitis symptoms [6]: significantly improved colitis symptoms

Now from value to compound, other results behind:

IC50 [1]	IC50 [3]	IC50 [2]	Compound	further results
1700 nM			N#Cc1c(Nc2ccc(Oc3ccccc3)cc2)nn2cc(C(=O)c3cc([N+](=O)[O-])ccc3O)cnc12 [Compound 4]	inhibition at 3 µM [2]: 48%
90 nM and 20 nM	4.9 µM and 3 µM	1400 nM and 490 nM	N#Cc1c(Nc2ccc(Oc3ccccc3)cc2)nn2cc(C(=O)c3ccccc3O)cnc12 [Compound 5]	
960 nM			N#Cc1c(Nc2ccc(Oc3ccccc3)cc2)nn2cc(C(=O)c3cc(Cl)cc(Cl)c3O)cnc12 [Compound 6]	inhibition at 3 µM [2]: 15%
30 nM and 10 nM	4.6 µM and 3 µM	1600 nM and 2900 nM	N#Cc1c(Nc2ccc(Oc3ccccc3)cc2)nn2cc(C(=O)c3cc(Cl)ccc3O)cnc12 [Compound 7]	
120 nM			N#Cc1c(Nc2ccc(Oc3ccccc3)cc2)nn2cc(-c3ccc(C(=O)O)cc3[N+](=O)[O-])cnc12 [Compound 10]	inhibition at 1 µM ([2]; at 1 uM): 20%
270 nM			N#Cc1c(Nc2ccc(Oc3ccccc3)cc2)nn2cc(-c3cccc(C(=O)O)n3)cnc12 [Compound 11]	
84 nM			N#Cc1c(Nc2ccc(Oc3ccccc3)cc2)nn2cc(-c3ccc(C(=O)O)cn3)cnc12 [Compound 12]	
